Type in all cases: in vivo, mouse
The test system of experiment [1] is NO synthesis in bone marrow (NOS). In words: Real-time bone marrow NO measurement with NO microelectrode during HBO. To be noted: diabetic mice, insulin 6 U/kg twice/d i.p. As to the method: For HBO treatment, mice were placed in an animal hyperbaric chamber (Reneau Corp.) and subjected to 100% oxygen at 2.4 atmospheres absolute (ATA) for 90 min (Davis Wound Healing Protocol). To measure continuous, real-time BM NO levels, NO microelectrodes was inserted into the femoral marrow cavity as previously described. An osteotomy was created on the patellar surface of the murine femur using a 25 G beveled needle, allowing the electrode to be lowered into the marrow space when the animal was placed in the hyperbaric chamber. In some mice, pretreatment with L-NAME (40 mg/kg i.p.) (Sigma-Aldrich) was given 2 h prior to exposure to HBO.
In early studies, it was hypothesized that HBO2 augments stem cell mobilization because it stimulates •NO synthesis in the bone marrow, as •NO is known to play a central role with stem cell release from bone marrow. […] Mice were placed in a hyperbaric chamber where, while breathing air, baseline measurements were obtained. The chamber was then flushed with 100% O2 and compressed to 2.4 ATA O2.
Physiologically, the NO-mediated EPC release into circulation occurs in response to tissue-level hypoxia, although this compensatory response is inadequate in the setting of diabetes and results in severe defects in neovascularization and wound healing. […] Therefore, it was sought to utilize HBO as a tool to augment EPC release into circulation and further study both EPC mobilization and wound-homing mechanisms in the presence of diabetes. The goal was to determine whether hyperoxia stimulates NO production in the BM of diabetic mice via a NOS-mediated pathway and whether this pathway is impaired in diabetes. To test this hypothesis, Nafion polymer—coated NO microsensors were inserted into the femur BM space of both STZ induced diabetic and nondiabetic mice to measure real-time NO levels within the BM prior to and is during HBO-induced hyperoxia. […] It was speculated, that this was likely due to a compensatory effect from other NOS isoforms, and therefore the level of both iNOS and nNOS was examined in diabetic mice. […] However, no observation was made of any changes in the phosphorylation of these NOS isoforms.

For experiment [2], the system named is diabetic cutaneous wounds. Put plainly: Peripheral wound healing (wound closure) in diabetic mice. The protocol:
Tie2-GFP, wild-type or chimeric FVB mice at 6-12 wk of age were treated with STZ (Sigma-Aldrich) to induce diabetes. Mice were rendered diabetic by i.p. administration of 60 mg/kg STZ in 50 mM sodium citrate, pH 4.5, daily for 5 d. Control mice were treated with daily injections of citrate buffer. Serum glucose was measured from the mouse tail vein using a glucometer. Once serum glucose reached 250 mg/dL, mice were followed with daily measurements for 1 wk prior to use in experiments. Serum glucose levels in STZ mice averaged 461 mg/dL with a range of 372-520 mg/dL, while control mice serum glucose mean level was 120 mg/dL with a range of 94-135 mg/dL. Wounds were induced on the ventral surface of the mouse thigh using a 4 mm punch biopsy. Full-thickness skin was removed, exposing the underlying muscle.
Initial wound surface area was recorded and wounds were then followed serially with daily digital photographs using an Olympus digital camera. Photographs contained an internal scale to allow for standard calibration of measurements. Wound area was quantified using ImageJ software. Wound area was expressed as the percentage of original wound size. Wounds were followed for 6 d and mice were sacrificed at the conclusion of the experiment.
EPCs play a key role in vasculogenesis and cutaneous tissue repair. It was hypothesized that increased numbers of EPCs in circulation, along with enhanced EPC homing to wounds, results in improved wound healing in diabetes. Diabetic wound closure rates were studied, in response to treatment with HBO and SDF-1α alone and in combination. Wounded diabetic mice underwent daily wound injections with SDF-1α, PBS, HBO, or SDF-1α+HBO treatments. […] This healing response was greater than the response to either treatment modality alone. In addition, histochemical analysis was conducted to examine blood vessel density (VEGFR2 staining), cellularity and stromagenesis (H&E staining), and extracellular constitution (trichrome staining) in wound tissues. […]

Another experiment has as its system SDF-1α in wound tissue. Put plainly: Wound SDF-1α level (immunostaining). To be noted: diabetic mice treated with insulin. An excerpt:
For immunostaining, paraffin embedded serial sections (5 μm) were first underwent standard deparaffinizing and rehydration procedures and then probed with various Abs. To assess wound SDF-1α^+ cells, sections were double-stained with HTC-conjugated anti-SDF-1α and PE-conjugated different tissue-specific Abs (eBiosciences). To detect blood vessels in wound, sections were stained with HTC-conjugated anti-VEGFR2Ab. For examination of wound EPC recruitment in BM transplantation experiment, sections were double-stained with FITC-GFP and PE-VEGFR2 (BD Biosciences). Nuclei were counterstained with Hoescht dye. Masson's trichrome staining and H&E staining were performed using standard method and all reagents were from Sigma-Aldrich. Tissue sections were analyzed using fluorescence microscopy and ImageJ (NIH) software to quantitate fluorescent intensity. In trichrome stained slides, blue stain (collagen content) was also quantitatively analyzed by ImageJ.

A further experiment has as its system BM eNOS phosphorylation. Put plainly: Western blot of bone marrow eNOS and phospho-eNOS. As to conditions: diabetic mice treated with insulin. The protocol:
Isolation of whole BM from FVB/NJ mice (n=12/group) was obtained by flushing harvested femurs and tibias with PBS/2% FBS. Red blood cells were removed by Red Cell Lysis Buffer (Sigma-Aldrich). Isolated BM cells were then lysed and protein concentrations were determined by DC protein assay (Bio-Rad Laboratories). Equal amounts of protein were subjected to 4-12% SDS gel electrophoresis under reducing conditions. The transferred PVDF membranes were probed with primary Ab (anti-eNOS and anti-phospho-eNOS (Ser^1177) (BD Biosciences) diluted 1:500 in 1% milk in TBST buffer and then incubated with HRP-conjugated second Ab (DakoCytomation Inc.). Proteins were visualized using enhanced chemiluminescence (Amersham Bioscience).
In diabetic patients, circulating EPCs are decreased in both number and function, and so it was hypothesized that BM eNOS activation is impaired in diabetes. To examine this question, BM was isolated from streptozocin-induced (STZ-induced) diabetic and nondiabetic mice and analyzed via Western blot for levels of total and phosphorylated eNOS protein. Although no changes in the amount of total eNOS protein were observed, the levels of biologically active phosphorylated eNOS protein were decreased in diabetic mice as compared with nondiabetic controls (FIG. 12A). […]
(In general: A western blot detects proteins with antibodies after separation by electrophoresis.)

Entries after “also recorded” stand apart in the source; their conditions may differ.

For “insulin: human insulin (NPH), 6 U/kg twice/d i.p.”, the “reversal of impaired BM NO production” value in experiment [1] is “little effect”; in experiment [1] (listed as Insulin), “did not reverse”. Moreover, in experiment [2] (diabetic mice), the “wound healing rate, insulin combined with HBO+SDF-1α therapy” value is on record as “did not further accelerate”. Besides, the wound healing rates result in experiment [2] (diabetic mice treated with insulin 6 U/kg twice/d i.p.) is “failed to improve; also recorded: Little effect”. Further, the “impaired wound SDF-1α production” value in the experiment on SDF-1α in wound tissue is “failed to improve”. In addition, the figures for the “reversal of impaired BM eNOS phosphorylation” value in the experiment with BM eNOS phosphorylation and in the experiment on BM eNOS phosphorylation (listed as Insulin) were “little effect” and “failed to restore”, respectively.

These data come from patent US8440617B2, “Hyperbaric treatment in wound healing” (The Trustees of the University of Pennsylvania, priority 2007, dated 2013).
